Results taken from US20170050934A1 (priority 2014, published 2017).

Columns and labels:
[1] = test system: rice blast fungus (Magnaporthe grisea); experiment: microbe, parasite or virus in culture; type: cell-based; conditions: Pyricularia oryzae, read-out: antimicrobial activity, inhibition of Magnaporthe grisea
[2] = test system: Botrytis cinerea AARF-033; experiment: Antimicrobial activity test against rice Botrytis cinerea (conidia, 96 well microplate); type: cell-based; conditions: AARF033, 96 h, conidia 1×10^4 conidia/ml in potato-glucose broth, 25° C. for 4 days
Excerpt: Test specimen (compound (A2-1) and compound (A5-1)) and reference agents i.e. iprodione and captan, were, respectively, dissolved in dimethyl sulfoxide (DMSO) and adjusted to 10,000 ppm. To a flat bottom 96 well microplate, 2 μ/ml of each test solution was dispensed, and then, 198 μ/ml of conidia of rice Botrytis cinerea (Botrytis cinerea AARF-033) cultured on a potato-glucose agar medium, and suspended in a potato-glucose broth and adjusted to 1×10^4 conidia/ml, were dispensed, followed by stirring by a micro mixer. At that time, the concentration of each test specimen and reference agent, was 100 ppm. Thereafter, culturing under standing-still condition was conducted at 25° C. for 4 days, whereby the antimicrobial activities were evaluated.

SMILES	inhibition at 100 ppm [1] [%]	inhibition at 100 ppm [2] [%]
CCCCNC(=O)n1c(NC(=O)OC)nc2ccccc21 [Benomyl, benomyl]	≥ 95	–
O=C1C2CC=CCC2C(=O)N1SC(Cl)(Cl)Cl (centres unmarked) [Captan, captan]	–	≥ 95
CCOC(=O)c1cnc(-c2ccccc2)nc1C(F)(OC(F)(F)C(F)(F)C(F)(F)F)C(F)(F)F (centres unmarked) [Compound A2-1]	≥ 95	≥ 95
Nc1cnc(-c2ccccc2)nc1C(F)(F)OC(F)(F)C(F)(F)OC(F)(F)C(F)(F)F [Compound A5-1]	≥ 95	≥ 95
CO/N=C(/C1=NOCCO1)c1ccccc1Oc1ncnc(Oc2ccccc2Cl)c1F [Fluoxastrobin, fluoxastrobin]	≥ 95	–
CC(C)NC(=O)N1CC(=O)N(c2cc(Cl)cc(Cl)c2)C1=O [Iprodione, iprodione]	–	≥ 95
